Source: patent publication US11021467B2, “Phosphatidylinositol 3-kinase inhibitors” (Gilead Sciences, Inc., priority 2014, dated 2021)

Assays:
Experiment in all cases: TR-FRET enzymatic activity assay against PI3K isoforms
Format in all cases: biochemical
[1] = target: PI3Kγ (Homo sapiens (Human), UniProt P48736); conditions: 2×Km ATP, 30 minutes at 25° C.
Text: (§1) The compounds of formula (I) were characterized for their enzymatic activity against the PI3K isoforms. […] TR-FRET monitored the formation of 3,4,5-inositol triphosphate molecule that competed with fluorescently labeled PIP3 for binding to the GRP-1 pleckstrin homology domain protein.

[2] = target: PI3Kβ (Homo sapiens (Human), UniProt P42338); conditions: PI3Kβ, TR-FRET, 2×Km ATP, 30 minutes at 25° C.
Sequence of PI3Kβ (P42338 whole entry): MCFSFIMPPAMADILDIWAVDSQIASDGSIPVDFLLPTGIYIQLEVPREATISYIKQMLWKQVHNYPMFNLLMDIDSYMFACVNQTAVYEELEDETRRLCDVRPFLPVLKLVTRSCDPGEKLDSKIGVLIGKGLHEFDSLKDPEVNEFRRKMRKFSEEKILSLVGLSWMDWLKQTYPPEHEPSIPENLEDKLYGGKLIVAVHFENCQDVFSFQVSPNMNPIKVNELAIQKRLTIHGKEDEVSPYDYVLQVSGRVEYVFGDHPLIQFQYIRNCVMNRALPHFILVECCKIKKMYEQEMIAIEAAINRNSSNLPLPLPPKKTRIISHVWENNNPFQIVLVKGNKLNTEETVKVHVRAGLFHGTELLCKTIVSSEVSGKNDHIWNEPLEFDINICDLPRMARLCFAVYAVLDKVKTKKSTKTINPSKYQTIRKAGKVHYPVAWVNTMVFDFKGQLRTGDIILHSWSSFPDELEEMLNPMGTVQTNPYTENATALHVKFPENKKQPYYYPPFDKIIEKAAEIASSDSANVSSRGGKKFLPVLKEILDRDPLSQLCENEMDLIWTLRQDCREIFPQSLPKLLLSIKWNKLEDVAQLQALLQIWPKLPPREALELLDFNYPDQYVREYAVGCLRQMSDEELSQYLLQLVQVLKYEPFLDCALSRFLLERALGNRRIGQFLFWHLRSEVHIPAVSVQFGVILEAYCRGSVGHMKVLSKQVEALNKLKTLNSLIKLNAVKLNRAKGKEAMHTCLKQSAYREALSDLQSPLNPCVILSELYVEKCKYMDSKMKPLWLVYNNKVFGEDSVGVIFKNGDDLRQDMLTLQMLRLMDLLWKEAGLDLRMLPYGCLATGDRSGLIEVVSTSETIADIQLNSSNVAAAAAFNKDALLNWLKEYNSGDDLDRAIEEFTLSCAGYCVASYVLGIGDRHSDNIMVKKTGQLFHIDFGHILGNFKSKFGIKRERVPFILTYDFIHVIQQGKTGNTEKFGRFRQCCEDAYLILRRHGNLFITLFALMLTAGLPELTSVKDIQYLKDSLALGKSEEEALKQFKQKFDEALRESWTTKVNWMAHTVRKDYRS
Sequence of PI3Kβ (P27986 whole entry partner): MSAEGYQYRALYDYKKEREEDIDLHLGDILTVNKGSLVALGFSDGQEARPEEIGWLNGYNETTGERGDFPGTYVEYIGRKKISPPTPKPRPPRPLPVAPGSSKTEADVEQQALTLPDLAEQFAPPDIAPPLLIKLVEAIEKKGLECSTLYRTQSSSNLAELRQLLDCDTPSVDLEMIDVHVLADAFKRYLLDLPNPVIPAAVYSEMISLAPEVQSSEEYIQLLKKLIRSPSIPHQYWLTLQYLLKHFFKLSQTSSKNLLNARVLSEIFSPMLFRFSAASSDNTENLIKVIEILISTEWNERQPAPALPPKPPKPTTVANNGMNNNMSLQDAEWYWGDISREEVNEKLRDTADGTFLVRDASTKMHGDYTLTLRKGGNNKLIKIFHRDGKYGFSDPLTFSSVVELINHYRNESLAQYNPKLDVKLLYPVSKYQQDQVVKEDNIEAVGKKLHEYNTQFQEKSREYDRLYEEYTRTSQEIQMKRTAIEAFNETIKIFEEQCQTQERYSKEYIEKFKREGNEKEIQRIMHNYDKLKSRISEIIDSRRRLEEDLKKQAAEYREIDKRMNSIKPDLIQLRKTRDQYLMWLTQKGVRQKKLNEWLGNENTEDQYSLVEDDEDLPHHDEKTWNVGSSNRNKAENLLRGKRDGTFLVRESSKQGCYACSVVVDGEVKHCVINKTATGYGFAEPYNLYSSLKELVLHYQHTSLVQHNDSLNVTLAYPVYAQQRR
Text: as §1

[3] = target: PI3Kδ (Homo sapiens (Human), UniProt O00329); conditions: 2×Km ATP, 30 minutes at 25° C.
Sequence of PI3Kδ (O00329 whole entry): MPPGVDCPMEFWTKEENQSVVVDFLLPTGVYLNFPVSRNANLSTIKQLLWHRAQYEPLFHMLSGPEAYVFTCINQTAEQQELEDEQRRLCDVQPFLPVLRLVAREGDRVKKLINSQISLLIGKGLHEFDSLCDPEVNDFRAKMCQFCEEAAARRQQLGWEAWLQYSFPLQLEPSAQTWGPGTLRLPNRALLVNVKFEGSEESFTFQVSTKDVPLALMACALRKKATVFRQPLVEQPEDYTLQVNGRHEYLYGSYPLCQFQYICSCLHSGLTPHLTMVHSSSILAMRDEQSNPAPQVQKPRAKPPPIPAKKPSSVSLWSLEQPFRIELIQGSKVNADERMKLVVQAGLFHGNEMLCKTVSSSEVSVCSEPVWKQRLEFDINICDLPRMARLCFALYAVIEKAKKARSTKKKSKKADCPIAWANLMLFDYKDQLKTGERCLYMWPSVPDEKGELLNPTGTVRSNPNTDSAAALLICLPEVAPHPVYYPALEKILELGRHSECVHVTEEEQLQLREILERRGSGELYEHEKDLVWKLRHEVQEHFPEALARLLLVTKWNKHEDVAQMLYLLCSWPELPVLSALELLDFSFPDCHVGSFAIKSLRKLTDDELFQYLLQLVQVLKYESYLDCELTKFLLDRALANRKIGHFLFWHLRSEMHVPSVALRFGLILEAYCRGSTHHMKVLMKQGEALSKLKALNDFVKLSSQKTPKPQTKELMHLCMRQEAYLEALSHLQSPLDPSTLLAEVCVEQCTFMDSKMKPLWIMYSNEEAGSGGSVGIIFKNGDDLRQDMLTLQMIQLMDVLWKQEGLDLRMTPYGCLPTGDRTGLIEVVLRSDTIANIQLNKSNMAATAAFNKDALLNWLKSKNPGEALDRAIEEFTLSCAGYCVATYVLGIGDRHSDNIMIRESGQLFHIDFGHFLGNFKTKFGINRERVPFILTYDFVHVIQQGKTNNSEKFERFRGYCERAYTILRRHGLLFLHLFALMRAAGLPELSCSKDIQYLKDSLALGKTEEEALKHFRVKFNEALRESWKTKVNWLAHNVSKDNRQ
Sequence of PI3Kδ (P27986 whole entry partner): as the sequence (P27986 whole entry partner) above
Text: as §1

Sequence of PI3Kγ (P48736 whole entry, the tested form may be a part, canonical isoform): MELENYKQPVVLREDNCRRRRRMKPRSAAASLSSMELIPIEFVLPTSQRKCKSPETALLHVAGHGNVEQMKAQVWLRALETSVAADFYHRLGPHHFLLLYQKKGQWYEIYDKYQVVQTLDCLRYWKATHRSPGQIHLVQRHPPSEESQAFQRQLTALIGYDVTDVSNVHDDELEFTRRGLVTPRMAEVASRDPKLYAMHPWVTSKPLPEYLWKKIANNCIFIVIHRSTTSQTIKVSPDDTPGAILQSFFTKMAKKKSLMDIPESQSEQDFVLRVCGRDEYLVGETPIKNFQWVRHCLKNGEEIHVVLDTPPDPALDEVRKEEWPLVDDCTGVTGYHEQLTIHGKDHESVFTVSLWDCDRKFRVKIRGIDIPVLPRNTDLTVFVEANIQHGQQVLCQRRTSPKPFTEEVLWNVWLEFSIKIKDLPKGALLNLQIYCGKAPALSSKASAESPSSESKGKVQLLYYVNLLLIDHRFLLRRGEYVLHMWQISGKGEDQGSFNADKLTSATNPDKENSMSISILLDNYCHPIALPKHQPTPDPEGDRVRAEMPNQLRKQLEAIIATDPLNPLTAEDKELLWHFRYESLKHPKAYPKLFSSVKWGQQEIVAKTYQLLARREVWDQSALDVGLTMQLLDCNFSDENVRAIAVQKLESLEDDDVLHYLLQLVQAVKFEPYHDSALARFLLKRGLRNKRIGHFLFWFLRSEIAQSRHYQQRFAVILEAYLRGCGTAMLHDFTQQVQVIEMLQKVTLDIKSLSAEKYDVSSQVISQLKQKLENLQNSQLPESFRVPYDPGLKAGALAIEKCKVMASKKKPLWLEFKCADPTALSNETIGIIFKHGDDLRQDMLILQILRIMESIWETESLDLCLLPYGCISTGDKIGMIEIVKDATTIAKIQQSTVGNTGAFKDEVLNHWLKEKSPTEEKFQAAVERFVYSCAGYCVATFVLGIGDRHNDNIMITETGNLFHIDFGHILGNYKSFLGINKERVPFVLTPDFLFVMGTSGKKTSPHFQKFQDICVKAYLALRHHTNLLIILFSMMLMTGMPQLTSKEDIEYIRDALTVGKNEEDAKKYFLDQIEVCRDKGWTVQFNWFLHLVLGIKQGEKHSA

| SMILES | IC50 [1] [nM] | IC50 [2] [nM] | IC50 [3] [nM] |
| --- | --- | --- | --- |
| COCCCn1c([C@H](C)Nc2ncnc(N)c2C#N)nc2c(Cl)ccc(Cl)c2c1=O [Compound 106, (S)-4-amino-6-((1-(5,8-dichloro-3-(3-methoxypropyl)-4-oxo-3,4-dihydroquinazolin-2-yl)ethyl)amino)pyrimidine-5-carbonitrile] | > 10000 | 590 | 8 |
| COCCCn1c([C@H](C)Nc2nc(N)nc(N)c2C#N)nc2c(Cl)ccc(Cl)c2c1=O [Compound 107, (S)-2,4-diamino-6-((1-(5,8-dichloro-3-(3-methoxypropyl)-4-oxo-3,4-dihydroquinazolin-2-yl)ethyl)amino)pyrimidine-5-carbonitrile] | 1700 | 82 | 3 |
| C[C@H](Nc1nc(N)nc(N)c1C#N)c1nc2cccc(Cl)c2c(=O)n1CCCC#N [Compound 110, (S)-2,4-diamino-6-((1-(5-chloro-3-(3-cyanopropyl)-4-oxo-3,4-dihydroquinazolin-2-yl)ethyl)amino)pyrimidine-5-carbonitrile] | 180 | 42 | 4 |
| C[C@H](Nc1nc(N)nc(N)c1C#N)c1nc2cccc(Cl)c2c(=O)n1CCCS(C)(=O)=O [Compound 111, (S)-2,4-diamino-6-((1-(5-chloro-3-(3-(methylsulfonyl)propyl)-4-oxo-3,4-dihydroquinazolin-2-yl)ethyl)amino)pyrimidine-5-carbonitrile] | 530 | 40 | 3 |
| N#CCCn1c([C@@H](Nc2nc(N)nc(N)c2C#N)C2CC2)nc2cccc(Cl)c2c1=O [Compound 112, (S)-2,4-diamino-6-(((5-chloro-3-(2-cyanoethyl)-4-oxo-3,4-dihydroquinazolin-2-yl)(cyclopropyl)methyl)amino)pyrimidine-5-carbonitrile] | 62 | 8 | 3 |
| N#CCCCCn1c([C@@H](Nc2nc(N)nc(N)c2C#N)C2CC2)nc2cccc(Cl)c2c1=O [Compound 114, (S)-2,4-diamino-6-(((5-chloro-3-(4-cyanobutyl)-4-oxo-3,4-dihydroquinazolin-2-yl)(cyclopropyl)methyl)amino)pyrimidine-5-carbonitrile] | 130 | 12 | 0.8 |
| CC[C@H](Nc1nc(N)nc(N)c1C#N)c1nc2cccc(Cl)c2c(=O)n1CCCC#N [Compound 115, (S)-2,4-diamino-6-((1-(5-chloro-3-(3-cyanopropyl)-4-oxo-3,4-dihydroquinazolin-2-yl)propyl)amino)pyrimidine-5-carbonitrile] | 190 | 190 | 9 |
| CC[C@H](Nc1nc(N)nc(N)c1C#N)c1nc2cccc(Cl)c2c(=O)n1CCCCC#N [Compound 116, (S)-2,4-diamino-6-((1-(5-chloro-3-(4-cyanobutyl)-4-oxo-3,4-dihydroquinazolin-2-yl)propyl)amino)pyrimidine-5-carbonitrile] | 540 | 150 | 5 |
| CC[C@H](Nc1nc(N)nc(N)c1C#N)c1nc2cccc(Cl)c2c(=O)n1CCCS(C)(=O)=O [Compound 117, (S)-2,4-diamino-6-((1-(5-chloro-3-(3-(methylsulfonyl)propyl)-4-oxo-3,4-dihydroquinazolin-2-yl)propyl)amino)pyrimidine-5-carbonitrile] | 3000 | 250 | 21 |
| CS(=O)(=O)CCCn1c([C@@H](Nc2nc(N)nc(N)c2C#N)C2CC2)nc2cccc(Cl)c2c1=O [Compound 118, (S)-2,4-diamino-6-(((5-chloro-3-(3-(methylsulfonyl)propyl)-4-oxo-3,4-dihydroquinazolin-2-yl)(cyclopropyl)methyl)amino)pyrimidine-5-carbonitrile] | 570 | 13 | 2 |
| CS(=O)(=O)CCCn1c([C@@H](Nc2nc(N)nc(N)c2C#N)C2CC2)nc2c(Cl)ccc(Cl)c2c1=O [Compound 119, (S)-2,4-diamino-6-((cyclopropyl(5,8-dichloro-3-(3-(methylsulfonyl)propyl)-4-oxo-3,4-dihydroquinazolin-2-yl)methyl)amino)pyrimidine-5-carbonitrile] | 1100 | 8 | 2 |
| CS(=O)(=O)CCCCn1c([C@@H](Nc2nc(N)nc(N)c2C#N)C2CC2)nc2cccc(Cl)c2c1=O [Compound 122, (S)-2,4-diamino-6-(((5-chloro-3-(4-(methylsulfonyl)butyl)-4-oxo-3,4-dihydroquinazolin-2-yl)(cyclopropyl)methyl)amino)pyrimidine-5-carbonitrile] | 120 | 23 | 0.7 |
| C[C@H](Nc1nc(N)nc(N)c1C#N)c1nc2cccc(Cl)c2c(=O)n1C[C@H]1CCNC1 [Compound 125, 2,4-diamino-6-(((S)-1-(5-chloro-4-oxo-3-((S)-pyrrolidin-3-ylmethyl)-3,4-dihydroquinazolin-2-yl)ethyl)amino)pyrimidine-5-carbonitrile] | 2300 | 49 | 3 |

More lines, now with the values ahead:

| IC50 [1] [nM] | IC50 [2] [nM] | IC50 [3] [nM] | SMILES |
| --- | --- | --- | --- |
| ≥ 10000 | 2000 | 39 | COCCCn1c([C@H](C)Nc2ncnc(N)c2C#N)nc2c(F)ccc(F)c2c1=O [Compound 108, (S)-4-amino-6-((1-(5,8-difluoro-3-(3-methoxypropyl)-4-oxo-3,4-dihydroquinazolin-2-yl)ethyl)amino)pyrimidine-5-carbonitrile] |
| 2180 | 520 | 14 | COCCCn1c([C@H](C)Nc2nc(N)nc(N)c2C#N)nc2c(F)ccc(F)c2c1=O [Compound 109, (S)-2,4-diamino-6-((1-(5,8-difluoro-3-(3-methoxypropyl)-4-oxo-3,4-dihydroquinazolin-2-yl)ethyl)amino)pyrimidine-5-carbonitrile] |
| 59 | 17 | 1 | N#CCCCn1c([C@@H](Nc2nc(N)nc(N)c2C#N)C2CC2)nc2cccc(Cl)c2c1=O [Compound 113, (S)-2,4-diamino-6-(((5-chloro-3-(3-cyanopropyl)-4-oxo-3,4-dihydroquinazolin-2-yl)(cyclopropyl)methyl)amino)pyrimidine-5-carbonitrile] |
| 1900 | 30 | 8 | CS(=O)(=O)CCCn1c([C@@H](Nc2nc(N)nc(N)c2C#N)C2CC2)nc2c(Cl)cc(F)cc2c1=O [Compound 120, (S)-2,4-diamino-6-(((8-chloro-6-fluoro-3-(3-(methylsulfonyl)propyl)-4-oxo-3,4-dihydroquinazolin-2-yl)(cyclopropyl)methyl)amino)pyrimidine-5-carbonitrile] |
| 760 | 9 | 2 | N#Cc1c(N)nc(N)nc1N[C@H](c1nc2c(Cl)cc(F)cc2c(=O)n1CCCC(N)=O)C1CC1 [Compound 121, (S)-4-(8-chloro-2-(cyclopropyl((2,6-diamino-5-cyanopyrimidin-4-yl)amino)methyl)-6-fluoro-4-oxoquinazolin-3(4H)-yl)butanamide] |
| 2500 | 24 | 0.9 | C[C@H](Nc1nc(N)nc(N)c1C#N)c1nc2cccc(Cl)c2c(=O)n1C[C@@H]1CCNC1 [Compound 126, 2,4-diamino-6-(((S)-1-(5-chloro-4-oxo-3-((R)-pyrrolidin-3-ylmethyl)-3,4-dihydroquinazolin-2-yl)ethyl)amino)pyrimidine-5-carbonitrile] |
